Data published in ChEMBL document CHEMBL4261653, “PPARγ-sparing thiazolidinediones as insulin sensitizers. Design, synthesis and selection of compounds for clinical development” (Bioorg Med Chem, 2018).

Test: Oral bioavailability in rat
Assay type: ADME, organism-based
Conditions: in vivo

bioavailability	SMILES
73%	CCc1ccc(C(=O)COc2ccc(CC3SC(=O)NC3=O)cc2)nc1 (configuration not stated) [MITOGLITAZONE]
100%	COc1cccc(C(=O)COc2ccc(CC3SC(=O)NC3=O)cc2)c1 (configuration not stated)
